Experimental data: the NIST ThermoML archive (doi:10.1021/je4005323)

Settings: Liquid; for speed of sound: Pulse-echo method; for mass density: Vibrating tube method

CCCCC/C=C\C/C=C\CCCCCCCC(=O)OC [methyl (Z,Z)-9,12-octadecadienate]
Settings | mass density [kg/m3] | speed of sound [m/s]
283.15 K, 101.3 kPa | – | 1455
283.15 K, 10000 kPa | – | 1498.2
283.15 K, 20000 kPa | – | 1539
283.15 K, 30000 kPa | – | 1577.6
283.15 K, 40000 kPa | – | 1614.3
283.15 K, 50000 kPa | – | 1649.2
283.15 K, 60000 kPa | – | 1682.6
283.15 K, 70000 kPa | – | 1714
283.15 K, 80000 kPa | – | 1745.2
283.15 K, 90000 kPa | – | 1774.4
283.15 K, 100000 kPa | – | 1803.2
283.15 K, 110000 kPa | – | 1830.9
283.15 K, 120000 kPa | – | 1857.8
283.15 K, 130000 kPa | – | 1884.6
283.15 K, 140000 kPa | – | 1909.9
283.15 K, 150000 kPa | – | 1934.7
293.15 K, 101.3 kPa | 885.2 | –
293.15 K, 10000 kPa | 891.2 | –
293.15 K, 20000 kPa | 896.6 | –
293.15 K, 30000 kPa | 901.8 | –
293.15 K, 40000 kPa | 906.8 | –
293.15 K, 50000 kPa | 911.4 | –
293.15 K, 60000 kPa | 915.9 | –
293.15 K, 70000 kPa | 920.2 | –
293.15 K, 80000 kPa | 924 | –
293.15 K, 90000 kPa | 928.2 | –
293.15 K, 100000 kPa | 931.3 | –
303.15 K, 101.3 kPa | 877.7 | 1382.9
303.15 K, 10000 kPa | 884 | 1428.9
303.15 K, 20000 kPa | 889.6 | 1472.2
303.15 K, 30000 kPa | 895 | 1513.6
303.15 K, 40000 kPa | 900.1 | 1552
303.15 K, 50000 kPa | 905 | 1588.6
303.15 K, 60000 kPa | 909.5 | 1623.5
303.15 K, 70000 kPa | 914 | 1656.3
303.15 K, 80000 kPa | 918.1 | 1688.3
303.15 K, 90000 kPa | 922.2 | 1719.1
303.15 K, 100000 kPa | 926.2 | 1748.7
303.15 K, 110000 kPa | – | 1776.9
303.15 K, 120000 kPa | – | 1804.4
303.15 K, 130000 kPa | – | 1831.3
303.15 K, 140000 kPa | – | 1857
303.15 K, 150000 kPa | – | 1883.6
303.15 K, 170000 kPa | – | 1932.3
303.15 K, 190000 kPa | – | 1979.7
303.15 K, 210000 kPa | – | 2023.6
313.15 K, 101.3 kPa | 870.9 | –
313.15 K, 10000 kPa | 877.1 | –
313.15 K, 20000 kPa | 882.9 | –
313.15 K, 30000 kPa | 888.5 | –
313.15 K, 40000 kPa | 893.7 | –
313.15 K, 50000 kPa | 898.8 | –
313.15 K, 60000 kPa | 903.3 | –
313.15 K, 70000 kPa | 908 | –
313.15 K, 80000 kPa | 912.2 | –
313.15 K, 90000 kPa | 916.6 | –
313.15 K, 100000 kPa | 920.6 | –
323.15 K, 101.3 kPa | 863.7 | 1312.6
323.15 K, 10000 kPa | 870.1 | 1361.4
323.15 K, 20000 kPa | 876.3 | 1407.2
323.15 K, 30000 kPa | 882 | 1450.8
323.15 K, 40000 kPa | 887.3 | 1491.3
323.15 K, 50000 kPa | 892.4 | 1530.3
323.15 K, 60000 kPa | 897.4 | 1567.2
323.15 K, 70000 kPa | 902.1 | 1601.4
323.15 K, 80000 kPa | 906.7 | 1634.3
323.15 K, 90000 kPa | 910.9 | 1666.2
323.15 K, 100000 kPa | 915.1 | 1697.2
323.15 K, 110000 kPa | – | 1726.4
323.15 K, 120000 kPa | – | 1754.6
323.15 K, 130000 kPa | – | 1782.4
323.15 K, 140000 kPa | – | 1808.7
323.15 K, 150000 kPa | – | 1834.7
323.15 K, 170000 kPa | – | 1884.5
323.15 K, 190000 kPa | – | 1931.7
323.15 K, 210000 kPa | – | 1977.6
333.15 K, 101.3 kPa | 856.3 | –
333.15 K, 10000 kPa | 863 | –
333.15 K, 20000 kPa | 869.5 | –
333.15 K, 30000 kPa | 875.4 | –
333.15 K, 40000 kPa | 881.3 | –
333.15 K, 50000 kPa | 886.5 | –
333.15 K, 60000 kPa | 891.5 | –
333.15 K, 70000 kPa | 896.4 | –
333.15 K, 80000 kPa | 900.9 | –
333.15 K, 90000 kPa | 905.4 | –
333.15 K, 100000 kPa | 910 | –
343.15 K, 101.3 kPa | 849.1 | 1245.1
343.15 K, 10000 kPa | 856.2 | 1297.9
343.15 K, 20000 kPa | 863 | 1346.9
343.15 K, 30000 kPa | 869.3 | 1392.6
343.15 K, 40000 kPa | 875.1 | 1435.4
343.15 K, 50000 kPa | 880.8 | 1475.1
343.15 K, 60000 kPa | 885.9 | 1513.2
343.15 K, 70000 kPa | 890.9 | 1549.4
343.15 K, 80000 kPa | 895.7 | 1583.9
343.15 K, 90000 kPa | 900.3 | 1616.7
343.15 K, 100000 kPa | 904.7 | 1648.6
343.15 K, 110000 kPa | – | 1679
343.15 K, 120000 kPa | – | 1708.5
343.15 K, 130000 kPa | – | 1736.1
343.15 K, 140000 kPa | – | 1763.4
343.15 K, 150000 kPa | – | 1789.7
343.15 K, 170000 kPa | – | 1840.9
343.15 K, 190000 kPa | – | 1889.3
343.15 K, 210000 kPa | – | 1935.4
353.15 K, 101.3 kPa | 841.8 | –
353.15 K, 10000 kPa | 849.3 | –
353.15 K, 20000 kPa | 856.2 | –
353.15 K, 30000 kPa | 862.8 | –
353.15 K, 40000 kPa | 868.9 | –
353.15 K, 50000 kPa | 874.6 | –
353.15 K, 60000 kPa | 879.9 | –
353.15 K, 70000 kPa | 885.2 | –
353.15 K, 80000 kPa | 890 | –
353.15 K, 90000 kPa | 894.7 | –
353.15 K, 100000 kPa | 899.3 | –
363.15 K, 101.3 kPa | 834.7 | 1180.3
363.15 K, 10000 kPa | 842.2 | 1237
363.15 K, 20000 kPa | 849.5 | 1288.6
363.15 K, 30000 kPa | 856.4 | 1336.6
363.15 K, 40000 kPa | 862.6 | 1381.1
363.15 K, 50000 kPa | 868.4 | 1422.6
363.15 K, 60000 kPa | 873.9 | 1462.6
363.15 K, 70000 kPa | 879.1 | 1500.2
363.15 K, 80000 kPa | 884.1 | 1536.1
363.15 K, 90000 kPa | 889 | 1570.2
363.15 K, 100000 kPa | 893.9 | 1602.5
363.15 K, 110000 kPa | – | 1634
363.15 K, 120000 kPa | – | 1663.9
363.15 K, 130000 kPa | – | 1693
363.15 K, 140000 kPa | – | 1720.3
363.15 K, 150000 kPa | – | 1747.4
363.15 K, 170000 kPa | – | 1799.1
363.15 K, 190000 kPa | – | 1847.3
363.15 K, 210000 kPa | – | 1894.7
373.15 K, 101.3 kPa | 826.5 | –
373.15 K, 10000 kPa | 835.3 | –
373.15 K, 20000 kPa | 842.9 | –
373.15 K, 30000 kPa | 849.9 | –
373.15 K, 40000 kPa | 856.4 | –
373.15 K, 50000 kPa | 862.4 | –
373.15 K, 60000 kPa | 868.3 | –
373.15 K, 70000 kPa | 873.9 | –
373.15 K, 80000 kPa | 879.3 | –
373.15 K, 90000 kPa | 884.3 | –
373.15 K, 100000 kPa | 889.1 | –
383.15 K, 101.3 kPa | 819.3 | 1118.2
383.15 K, 10000 kPa | 828.2 | 1178.7
383.15 K, 20000 kPa | 836.2 | 1233.8
383.15 K, 30000 kPa | 843.5 | 1283.1
383.15 K, 40000 kPa | 850.2 | 1329
383.15 K, 50000 kPa | 856.8 | 1372.3
383.15 K, 60000 kPa | 862.7 | 1413.2
383.15 K, 70000 kPa | 868.2 | 1452.3
383.15 K, 80000 kPa | 873.5 | 1489.5
383.15 K, 90000 kPa | 878.7 | 1525.2
383.15 K, 100000 kPa | 883.9 | 1558.2
383.15 K, 110000 kPa | – | 1590.3
383.15 K, 120000 kPa | – | 1621.1
383.15 K, 130000 kPa | – | 1650.8
383.15 K, 140000 kPa | – | 1679.1
383.15 K, 150000 kPa | – | 1707.1
383.15 K, 170000 kPa | – | 1759.8
383.15 K, 190000 kPa | – | 1808.6
383.15 K, 210000 kPa | – | 1855.8
393.15 K, 101.3 kPa | 811.9 | 1088
393.15 K, 10000 kPa | 820.9 | 1150.9
393.15 K, 20000 kPa | 829.3 | 1207.3
393.15 K, 30000 kPa | 837 | 1258.5
393.15 K, 40000 kPa | 844.1 | 1304.7
393.15 K, 50000 kPa | 850.5 | 1348.4
393.15 K, 60000 kPa | 856.7 | 1389.4
393.15 K, 70000 kPa | 862.4 | 1428.7
393.15 K, 80000 kPa | 867.9 | 1466.7
393.15 K, 90000 kPa | 873 | 1503.1
393.15 K, 100000 kPa | 878.1 | 1537.7
393.15 K, 110000 kPa | – | 1570
393.15 K, 120000 kPa | – | 1600.8
393.15 K, 130000 kPa | – | 1630.7
393.15 K, 140000 kPa | – | 1660.1
393.15 K, 150000 kPa | – | 1688
393.15 K, 170000 kPa | – | 1740.7
393.15 K, 190000 kPa | – | 1790
393.15 K, 210000 kPa | – | 1838.1
